Each block holds one compound with its values, some of them ahead of it.
Experiments:
[1] = DPPH radical scavenging test; conditions: mean ± SEM; for DPPH (% Inhibition): compound at 1 mg/mL, 30 min, 517 nm
Description: The DPPH assay is widely used, and the simplest and fastest in vitro method for evaluating the antioxidant power of extracts or isolated compounds; it is based on the depletion of the 2,2-diphenyl-1-picrylhydrazyl radical (DPPH˙) by an antioxidant molecule with scavenger activity. This is an extremely sensitive test that can detect the activity of active ingredients present in very low concentrations.
The procedure used was adapted from Wang et al.. Briefly, 0.750 mL of a methanolic solution of each tested compound was treated with 1.5 mL of DPPH solution (0.004%) in MeOH. Samples were stored in the dark at room temperature for 30 min, and the absorbance value was read with a spectrophotometer at 517 nm, which is the maximum peak of absorbance relative to the DPPH radical absorption spectra. The values obtained were fitted into Equation (1) and converted to inhibition percentage (%) of the radical:DPPH inhibition percentage (%) = 100 × [1 − A1/A0](1) where A1 and A0 were, respectively, the absorbance recorded with and without the sample, which are directly proportional to DPPH residual concentration in the sample and DPPH concentration in the control (0.750 of MeOH and 1.5 mL of DPPH solution). […] A linear regression was performed to calculate the sample concentration able to eliminate 50% of DPPH free radicals.

[2] = In vitro filtering parameters of O/W sunscreen formulation containing 3% compound (modified Diffey-Robson, PMMA plates); conditions: 3% in formulation, before irradiation
Source text: All synthesized compounds were formulated at 3% and their photoprotective efficacy, determined by spectrophotometric measurements using the modified Diffey-Robson method, was compared with that of the lead compound PBSA (used at 3% in the same formulation) and using the base without active as a control (Table 2).
The synthesized compounds were incorporated at a concentration of 3% in a typical oil-in-water sunscreen formulation, to evaluate the filtering parameters, and have the following ingredient composition:
INCI (International Nomenclature Cosmetic Ingredients): aqua, glycerin, Euxyl PE 9010, xanthan gum, Tribehenin PEG-20 Esters, cetearyl alcohol, dicaprylyl carbonate, PPG-26-Buteth-26 (and) PEG-40 Hydrogenated Castor Oil (and) water, C12-C15 Alkyl Benzoate, and Sodium hydroxide (sol. 10%).
As previously reported the protocol indicates to spread 32.5 mg of each formulation on 25 cm^2 PMMA plates with the fingers. Each formulation was tested in triplicate, and five measurements were recorded for each dish, following a 15–30 min incubation in the dark at room temperature. UV transmittance data was recorded using a UV-VIS spectrophotometer in the range 290–400 nm. The blank plate, SPF, UVA-PF and critical wavelength were obtained by SPF Calculator software (version 2.1), Shimadzu, Milan, Italy).

[3] = Photostability study of 3% formulation (post-irradiation filtering parameters); conditions: 3% in formulation; for % SPFeff (residual percentage of SPF in vitro): SPF after/before irradiation × 100; for % UVA-PFeff (residual percentage of UVA-PF): UVA-PF after/before irradiation × 100; for SPF / UVA/UVB / UVAPF / λc: post irradiation
Source text: To outline the efficacy and safety profile of a sunscreen formulation, it is essential to provide data relating to photostability. It is possible to provide photodegradation data by recording, pre- and post-irradiation, the transmittance of PMMA plates with finger-coat formulations subjected to a dose of UVA capable of causing erythema, according to the criteria of Garoli et al.. By means of Equations (2) and (3) it was possible to evaluate the residual percentage of SPF in vitro and of UVA-PF for all the prepared formulations. Of greatest interest are the values obtained for the derivatives BZTcin2 and BZTcin4.
To determine the photostability, the previously reported method was adopted, which consists in preparing each plate as mentioned above and subjecting it to solar irradiation quantified as the minimum dose of UVA equivalent to an effective radiant exposure of erythema. The protocol stipulates that, before and after exposure to sunlight, the transmission of the sun protection layer in the range of 290–400 nm is recorded.
Using Equations (2) and (3) below, the residual percentage of SPF in vitro (% SPFeff.) and UVA-PF (% UVA-PFeff.) have been obtained, which, if greater than or equal to 80, can classify a filter as photostable. %SPFeff. = in vitro SPFafter/in vitro SPFbefore × 100(2) %UVA − PFeff. = UVA − PFafter/UVA − PFbefore × 100(3)

[4] = system: HaCat keratinocytes; assay: Cell growth inhibition assay, HaCat; assay type: cell-based, human; conditions: Homo sapiens, HaCaT; 24 h incubation, cell count
Description: All synthesized compounds were tested in order to evaluate their in vitro antiproliferative activity. The human melanoma Colo-38 cell line was selected as a tumor skin model, while the immortalized human HaCaT keratinocytes were chosen as a control for the evaluation of the cytotoxicity towards non-cancerous cells and of the selectivity towards tumor cell lines. […] The selectivity index (SI) was also calculated and is the ratio between the IC50 of a given compound towards the non-cancerous cell line and the IC50 of the same compound towards the tumor cell line.
Cell growth inhibition assays were carried out using human melanoma Colo-38 cells and skin HaCat keratinocytes cells. Human melanoma Colo-38 cells were kindly provided by Dr. Patrizio Giacomini (Laboratory of Immunology, Regina Elena Institute, Rome, Italy). HaCat cells were kindly provided by Istituto Zooprofilattico Sperimentale della Lombardia e dell’Emilia Romagna, Brescia, Italy. Cell lines were seeded using concentrations of 40,000 cells/mL and 25,000 cells/mL, respectively. Colo-38 cells were maintained in RPMI 1640, supplemented with 10% fetal bovine serum (FBS), penicillin (100 Units mL^−1), and streptomycin (100 µg mL^−1). HaCat cells were maintained in DMEM, supplemented with 10% fetal bovine serum (FBS), penicillin (100 Units mL^−1), streptomycin (100 µg mL^−1) and glutamine (2 mM); the incubation was performed at 37 °C in a 5% CO2 atmosphere. Tested compounds were dissolved in MeOH/DMSO (1:1) to obtain 50 mM stock solutions and diluted before cell treatment in MeOH 100%. The tested compounds were added at serial dilutions to the cell cultures (from 0.1 to 100 µM) and incubated for 24 h further. Cells were then harvested, suspended in physiological solution, and counted with a Z2 Coulter Counter (Coulter Electronics, Hialeah, FL, USA). The cell number/mL and the IC50 values were determined when untreated cells were in the log phase of cell growth. Cells treated with vehicles and untreated cells were placed in each plate.

% SPFeff (residual percentage of SPF in vitro) [3]: 96.00%
% UVA-PFeff (residual percentage of UVA-PF) [3]: 85.50%
Compound: O=C(/C=C/c1ccc(O)cc1)Nc1nc2ccccc2s1 [BZTcin2, (E)-N-(benzo[d]thiazol-2-yl)-3-(4-hydroxyphenyl)acrylamide]
DPPH (% Inhibition) [1]: 12.37 ± 0.00%
SPF [2]: 12.26
UVA/UVB [2]: 1.49
UVAPF0 [2]: 11.79
λc [2]: 380 nm
SPF [3]: 11.77
UVA/UVB [3]: 1.49
UVAPF [3]: 10.08
λc [3]: 377 nm
IC50 [4]: > 100 µM

DPPH IC50 [1]: 4.86 ± 0.38 µg/mL
% SPFeff (residual percentage of SPF in vitro) [3]: 86.91%
% UVA-PFeff (residual percentage of UVA-PF) [3]: 93.25%
Compound: O=C(/C=C/c1ccc(O)c(O)c1)Nc1nc2ccccc2s1 [BZTcin4, (E)-N-(benzo[d]thiazol-2-yl)-3-(3,4-dihydroxyphenyl)acrylamide]
DPPH (% Inhibition) [1]: >90.00%
SPF [2]: 9.70
UVA/UVB [2]: 1.39
UVAPF0 [2]: 11.40
λc [2]: 380 nm
SPF [3]: 8.43
UVA/UVB [3]: 1.39
UVAPF [3]: 10.63
λc [3]: 380 nm
IC50 [4]: 38.1 ± 5.13 µM

Compound: COc1ccc(/C=C/C(=O)Nc2nc3ccccc3s2)cc1O [BZTcin5, (E)-N-(benzo[d]thiazol-2-yl)-3-(3-hydroxy-4-methoxyphenyl)acrylamide]
DPPH (% Inhibition) [1]: 40.15 ± 0.18%
SPF [2]: 3.84
UVA/UVB [2]: 1.11
UVAPF0 [2]: 3.61
λc [2]: 378 nm
SPF [3]: 3.51
UVA/UVB [3]: 1.11
UVAPF [3]: 3.32
λc [3]: 377 nm
IC50 [4]: 83.3 ± 5.79 µM

Compound: O=C(N/N=C/c1ccc(O)cc1)c1nc2ccccc2s1 [BZTidr2, (E)-N′-(4-hydroxybenzylidene)benzo[d]thiazole-2-carbohydrazide]
DPPH (% Inhibition) [1]: 54.80 ± 1.63%
SPF [2]: 1.85
UVA/UVB [2]: 1.09
UVAPF0 [2]: 1.96
λc [2]: 386 nm
SPF [3]: 1.85
UVA/UVB [3]: 1.09
UVAPF [3]: 1.96
λc [3]: 386 nm
IC50 [4]: > 100 µM
